Measurements from PMC7277094 (Biomolecules, 2020).
Several values for one entry are separate records, joined by “and”; a condition that tells them apart may be missing. Equal entries are not always repeated. Where two headings read alike, the source gives them in different places.

Key:
Tlp3 LBD [1] = target: T1, Tlp3 LBD (Campylobacter jejuni subsp. jejuni, UniProt Q0P864); assay: Fluorescence-based thermal shift assay; type: binding, C. jejuni strain NCTC 11168; conditions: for Thermal Shift ∆Tm: 20 μM protein, 0.8–1.6 mM Biolog compound, Tm free protein 56.3 °C; for ΔTm at 5000 µM: read-out: Thermal Shift ∆Tm
T1 sequence (Q0P864 entry or part of it): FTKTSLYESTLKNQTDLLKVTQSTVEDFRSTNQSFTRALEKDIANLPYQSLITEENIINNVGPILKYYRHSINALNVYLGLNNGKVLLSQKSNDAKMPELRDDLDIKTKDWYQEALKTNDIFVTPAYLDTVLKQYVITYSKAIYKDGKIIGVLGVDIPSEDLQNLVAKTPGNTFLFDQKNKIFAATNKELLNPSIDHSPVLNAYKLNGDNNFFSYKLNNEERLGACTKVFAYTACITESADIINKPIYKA
From the text: Tlp3 LBD from C. jejuni strain NCTC 11168 was expressed in E. coli, purified according to the previously published procedure and used for high-throughput screening against the compounds from the Biolog Phenotype Microarray (PM) libraries PM1, PM3B, and PM5 using thermal shift assays. […] Each plate contains 95 compounds and a negative control (water). Thermal-shift-based screening is based on the phenomenon that ligand-binding alters thermal stability of the protein, resulting in an increase or decrease in the protein’s melting temperature (Tm). Screening was performed by following the protocol previously described by McKellar et al., with minor modifications. The compounds in the Biolog PM plates were dissolved in 50 μL of water, yielding a final concentration of 10–20 mM (as indicated by the manufacturer). Each assay was performed in a 25 μL volume and contained 20 μM protein, 0.8–1.6 mM Biolog compound, 10 mM Tris-HCl pH 8.0, 150 mM NaCl, and 10× SYPRO orange reagent (5000× stock, catalogue number S5692; Sigma-Aldrich). The samples were heated from 35 °C to 80 °C at a ramp rate of 0.5 °C min^−1 using a Rotor-Gene Q real-time PCR cycler (Qiagen, Venlo, Netherlands). Protein denaturation was monitored by following changes in the SYPRO Orange fluorescence emission (λex 530 nm/λem 555 nm) that result from the dye binding to the exposed hydrophobic protein regions. All experiments were performed in triplicate. The midpoint of denaturation (the melting temperature Tm) was calculated by fitting the data to the Boltzmann sigmoidal equation for the two-state unfolding model using GraphPad Prism (version 7.02) (GraphPad Software, La Jolla, CA, USA). The thermal shift assay with the three potential ligands identified using in silico screening was performed at a ligand concentration of 5 mM, with other conditions the same.

C. jejuni WT strain = assay: Nutrient-depleted hard agar plug chemotaxis assay, WT strain; type: cell-based, C. jejuni NCTC 11168; conditions: plugs prepared from 50–200 mM compound, CI > 1 attractant, < 1 repellent
Tlp3 LBD [2] = target: T1, Tlp3 LBD; assay: Isothermal titration calorimetry (ITC); type: binding, C. jejuni strain NCTC 11168; conditions: for ∆H: ITC binding enthalpy; for ∆H / ∆S / Kd: 25 °C; for ∆S: ITC binding entropy; for Kd / Binding to Tlp3 LBD detected by ITC: 10 µM Tlp3 LBD; for Binding to Tlp3 LBD detected by ITC: ligand at 10 mM
Method: Tlp3 LBD was dialysed against a buffer containing 100 mM Tris-HCl pH 8.0 and 150 mM NaCl. […] Calorimetry measurements were conducted on a VP-ITC MicroCal calorimeter (Malvern Instruments, UK) at 25 °C. The Tlp3 LBD sample (10 µM) in a 1.45 mL reaction cell was titrated with 25 successive 10 µL injections of ligand solution at a spacing of 200 s. All measurements were made in triplicate and corrected for heat changes measured when the ligand was titrated into the buffer. The data were integrated and normalised for protein concentration to generate binding isotherms.

C. jejuni Δtlp3 mutant = assay: Nutrient-depleted hard agar plug chemotaxis assay, Δtlp3 mutant; type: cell-based, C. jejuni NCTC 11168; conditions: CI > 1 attractant, < 1 repellent
Tlp3 LBD [3] = assay: Co-crystallisation with Tlp3 LBD and X-ray electron density analysis; type: binding, C. jejuni; conditions: co-crystallised with 8 mM ligand; 1.4–1.5 Å resolution
Method: The solution was then clarified by centrifugation at 13,000 g, 4 °C for 20 min and protein crystallisation was carried out by the hanging drop vapour diffusion method using crystallisation conditions similar to those described previously. Briefly, crystals were grown in 2 µL hanging drops suspended over 500 µL reservoir solution containing 22% (w/v) polyethylene glycol 3350, 100 mM sodium citrate pH 5.0 and 200 mM ammonium sulphate. The hanging drop was prepared by adding 1 µL of the protein/ligand mix to 1 µL of the reservoir solution. Crystals of all Tlp3 LBD/ligand complexes had similar unit-cell parameters and belonged to space group P2_1 (Table 2), with two molecules in the asymmetric unit.
To perform data collection at cryogenic temperatures, the crystals were briefly soaked in a cryoprotectant solution consisting of 26% (w/v) polyethylene glycol 3350, 100 mM sodium citrate pH 5.0, 200 mM ammonium sulphate, 10% (v/v) glycerol, and 10 mM respective ligand, and then flash-cooled by plunging them into liquid nitrogen. X-ray diffraction data were collected at 100 K on the MX1 and MX2 beamlines of the Australian Synchrotron. The data were processed using iMOSFLM [65] and scaled with AIMLESS [66] from the CCP4 software suite.
The crystal structures were determined using molecular replacement with PHASER [68] and the protein coordinates of the Tlp3 LBD/isoleucine complex (PDB code, 4XMR) as a search model. The models were refined with PHENIX [69] and manually rebuilt where necessary using COOT [70]. Analysis of the stereochemical quality of the final models was performed using MOLPROBITY [71]. The accessible surface area was calculated using AREAIMOL from CCP4. The structure figures were produced using PyMOL 4.1 [72].

Tlp3 LBD [4] = target: T1, Tlp3 LBD; design: method as in PMID 26457436; conditions: L-isoleucine not among ligands titrated here; listed as footnoted to previous study ref 32; cited from earlier work
Tlp3 LBD Tyr118Ala = tested on: Tlp3 LBD Tyr118Ala; design: method as in PMID 26457436; conditions: Tyr118Ala vs wild-type Tlp3 LBD ref 32; cited from earlier work
[5] = single-site model, NB = no binding detected by ITC

| Structure (SMILES) | Thermal Shift ∆Tm (Tlp3 LBD [1]) [°C] | ∆H (Tlp3 LBD [2]) [kcal/mol] | ∆S (Tlp3 LBD [2]) [cal mol^−1 deg^−1] | Kd (Tlp3 LBD [2]; [5]) [µM] | Binding to Tlp3 LBD detected by ITC (Tlp3 LBD [2]) | further results |
| --- | --- | --- | --- | --- | --- | --- |
| N[C@@H](Cc1ccccc1)C(=O)O [L-phenylalanine] | −0.3 ± 0.4 | -5.9 ± 0.3 | −5.44 | 730 ± 55 |  | Chemotactic response (chemotactic index CI) (C. jejuni WT strain): Tlp3-dependent attractant response |
| N[C@@H](CO)C(=O)O [serine, L-serine] |  |  |  |  |  | Chemotactic response (chemotactic index CI) (C. jejuni Δtlp3 mutant): did not affect |
| C[C@H](N)C(=O)O [L-alanine] | −0.6 ± 0.7 | -150.2 ± 54.5 | −495.50 | 4980 ± 917 |  | Chemotactic response (chemotactic index CI) (C. jejuni WT strain): Tlp3-dependent attractant response; Kd (Tlp3 LBD [2]; 50 mM ligand): ~5000 µM and 5000 µM |
| CC(C)C[C@H](N)C(=O)O [L-leucine] | 2.4 ± 0.2 | -4.6 ± 0.1 | 2.9 | 105 ± 6 |  |  |
| CC(C)[C@H](C)[C@H](N)C(=O)O [4-methyl-L-isoleucine] |  | -5.1 ± 0.2 | −1.01 | 324 ± 20 |  | ΔTm at 5000 µM (Tlp3 LBD [1]): 2.8 ± 0.3 °C |
| O=C(O)CC(O)C(=O)O (stereo not drawn) [malic acid] |  |  |  |  |  | Electron density for ligand bound to Tlp3 LBD in crystal (Tlp3 LBD [3]): no electron density |
| Nc1ccn([C@H]2C[C@H](O)[C@@H](CO)O2)c(=O)n1 [2-deoxycytidine] | 1.4 ± 0.8 |  |  |  | no binding |  |
| CC(C)[C@H](N)C(=O)O [L-valine] | 1.3 ± 0.1 | -4.4 ± 0.2 | 0.8 | 405 ± 27 |  |  |
| N=C(N)NCCC[C@H](N)C(=O)O [L-arginine] |  |  |  |  | no binding | Electron density for ligand bound to Tlp3 LBD in crystal (Tlp3 LBD [3]): no electron density |
| CCC[C@@H](C)C(N)C(=O)O (stereo in doubt) [β-methyl-L-norleucine] |  | -6.2 ± 0.2 | −4.77 | 294 ± 14 |  | ΔTm at 5000 µM (Tlp3 LBD [1]): 3.7 ± 0.2 °C |
| COC(=O)C(C)=O [methyl pyruvate] | −1.8 ± 0.0 |  |  |  | no binding |  |
| N[C@@H](CC(=O)O)C(=O)O [L-aspartic acid] |  |  |  |  | no binding | Electron density for ligand bound to Tlp3 LBD in crystal (Tlp3 LBD [3]): no electron density |
| c1ncc2nc[nH]c2n1 [purine] |  |  |  |  | did not bind |  |
| CCC(C)(C)[C@H](N)C(=O)O [3-methyl-L-isoleucine] |  | -5.7 ± 0.2 | −4.03 | 484 ± 30 |  | ΔTm at 5000 µM (Tlp3 LBD [1]): 2 ± 0.1 °C; Reduction of binding affinity (two methyl groups at Position 3) (Tlp3 LBD [2]; compared with single methyl substitution at Position 3 (L-isoleucine)): at least 5 fold |
| CC[C@H](C)[C@H](N)C(=O)O [L-isoleucine] |  |  |  |  |  | ∆H (Tlp3 LBD [4]): -4.4 ± 0.2 kcal/mol; ∆S (Tlp3 LBD [4]): 3.6 cal mol^−1 deg^−1; Reduction in binding affinity on Tyr118Ala substitution (Tlp3 LBD Tyr118Ala): ≥ 35 fold |
| NCCCC[C@H](N)C(=O)O [L-lysine] |  |  |  |  | no binding | Electron density for ligand bound to Tlp3 LBD in crystal (Tlp3 LBD [3]): no electron density |
| CCC[C@@H](N)C(=O)O [α-amino-N-valeric acid] | 1.4 ± 0.3 | -6.5 ± 0.2 | −4.5 | 168 ± 9 |  |  |
| C[C@H](N)C(=O)N[C@H](C(=O)O)[C@H](C)O [Ala-Thr] | 1.1 ± 0.3 |  |  |  | no binding |  |
